Data as given in ChEMBL document CHEMBL1201862, “PubChem BioAssay data set” (2004).
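Five compound concentrations were applied to cells in 96-well plates for 48 hours; endpoints were derived by simple linear interpolation of the resulting dose-response curve. GI50 marks 50% less growth.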 The source made the active and inactive calls. Cut-off read from the data, not from the text of the source: active = GI50 up to about 1.1 µM and inactive = higher.

Columns and labels:
Assay in all cases: NCI-60 cell line screen, 48 h
SF-268 = test system: SF-268
SR = test system: SR
SW-620 = test system: SW-620
HCT-15 = test system: HCT-15
NCI/ADR-RES = test system: NCI/ADR-RES
TK-10 = test system: TK-10
786-0 = test system: 786-0
UACC-257 = test system: UACC-257
M14 = test system: M14
K562 = test system: K562
EKVX = test system: EKVX
MDA-N = test system: MDA-N
NCI-H522 = test system: NCI-H522
NCI-H226 = test system: NCI-H226
MDA-MB-435 = test system: MDA-MB-435
RXF 393 = test system: RXF 393
IGROV-1 = test system: IGROV-1
LOX IMVI = test system: LOX IMVI
SF-295 = test system: SF-295
Hs-578T = test system: Hs-578T

Measured: GI50

CCNC(=O)NNc1ncnc2c1c(-c1ccc(Cl)cc1)cn2-c1ccc(C)cc1
inactive: SF-268 19 µM | SR 20.2 µM | SW-620 21.2 µM | NCI/ADR-RES 20 µM | TK-10 34.2 µM | 786-0 18.6 µM | UACC-257 21.3 µM | M14 17.7 µM | K562 18.6 µM | EKVX 20.2 µM | MDA-N 19.8 µM | NCI-H522 17.9 µM | NCI-H226 20 µM | MDA-MB-435 17 µM | RXF 393 18.3 µM | IGROV-1 20.5 µM | LOX IMVI 17.7 µM | SF-295 15.7 µM
20.5 µM: HCT-15

COc1cc(OC)cc(-n2c(N)c(-c3nc4ccccc4n3C)c3ccc([N+](=O)[O-])cc3c2=O)c1
inactive: SF-268 55.5 µM | SW-620 > 100 µM | NCI/ADR-RES 33.8 µM | TK-10 > 100 µM | 786-0 64.7 µM | UACC-257 > 100 µM | Hs-578T 26.4 µM | K562 > 100 µM | MDA-N > 100 µM | NCI-H522 55.8 µM | NCI-H226 70.6 µM | MDA-MB-435 > 100 µM | LOX IMVI > 100 µM
> 100 µM: HCT-15

CC1C[C@]2(C[C@@H](C)C(=O)O2)O[C@@H]2CC3(C)[C@@H]4CCC5C(C)(C)OC(=O)C[C@H]6OO[C@]4(CC[C@]3(C)C12)CC56O (stereo not given in full)
inactive: SR > 100 µM | SW-620 > 100 µM | TK-10 > 100 µM | 786-0 > 100 µM | UACC-257 > 100 µM | M14 > 100 µM | NCI-H522 > 100 µM | NCI-H226 > 100 µM | RXF 393 > 100 µM | IGROV-1 > 100 µM | LOX IMVI > 100 µM | SF-295 > 100 µM
> 100 µM: HCT-15

Cc1nc(N)c(N2CCN(S(N)(=O)=O)CC2)c(O)n1
inactive: SF-268 > 100 µM | SR > 100 µM | SW-620 > 100 µM | NCI/ADR-RES > 100 µM | TK-10 > 100 µM | 786-0 > 100 µM | UACC-257 > 100 µM | Hs-578T > 100 µM | M14 > 100 µM | K562 > 100 µM | EKVX > 100 µM | NCI-H522 > 100 µM | NCI-H226 > 100 µM | MDA-MB-435 > 100 µM | LOX IMVI > 100 µM | SF-295 > 100 µM
> 100 µM: HCT-15

N#C/C(C(=O)Nc1ccccc1)=C(/N)N1CCCCC1
inactive: SR > 100 µM | SW-620 > 100 µM | NCI/ADR-RES > 100 µM | 786-0 > 100 µM | UACC-257 > 100 µM | M14 91 µM | K562 > 100 µM | EKVX 98.4 µM | MDA-N > 100 µM | NCI-H226 > 100 µM | MDA-MB-435 84.9 µM | IGROV-1 91 µM | LOX IMVI > 100 µM | SF-295 > 100 µM
> 100 µM: HCT-15

C=C(CCCCC)CN1CCCC1C(C)=O (stereo not given)
inactive: SF-268 42.3 µM | SR 14.9 µM | SW-620 > 57.9 µM | TK-10 38.1 µM | 786-0 35.5 µM | UACC-257 26.6 µM | M14 41.5 µM | K562 15 µM | EKVX 35 µM | NCI-H522 11.4 µM | NCI-H226 22 µM | RXF 393 34.1 µM | IGROV-1 33.2 µM | LOX IMVI 18.8 µM | SF-295 26.8 µM
31.6 µM: HCT-15

CSC(SC)(C(=O)O)c1cc(-c2c(Cl)cccc2Cl)no1
15.5 µM: HCT-15
inactive: SF-268 51.9 µM | SR 33 µM | SW-620 > 100 µM | NCI/ADR-RES 26.5 µM | TK-10 > 100 µM | 786-0 39.5 µM | UACC-257 42.9 µM | Hs-578T 39.2 µM | M14 30.2 µM | K562 50.8 µM | EKVX 54.6 µM | NCI-H522 28.5 µM | NCI-H226 25.1 µM | MDA-MB-435 63.4 µM | IGROV-1 30.4 µM | LOX IMVI 35.6 µM | SF-295 91.2 µM

CCOC(=O)/C=C/c1cccc(F)c1
> 100 µM: HCT-15
inactive: SF-268 > 100 µM | SR > 100 µM | SW-620 > 100 µM | NCI/ADR-RES > 100 µM | TK-10 > 100 µM | 786-0 > 100 µM | UACC-257 > 100 µM | M14 > 100 µM | K562 > 100 µM | EKVX > 100 µM | MDA-N > 100 µM | NCI-H522 > 100 µM | NCI-H226 > 100 µM | MDA-MB-435 > 100 µM | RXF 393 > 100 µM | IGROV-1 > 100 µM | LOX IMVI > 100 µM

O=C(O)CCCCCO
inactive: SF-268 > 100 µM | SR > 100 µM | SW-620 > 100 µM | TK-10 > 100 µM | 786-0 > 100 µM | UACC-257 > 100 µM | M14 > 100 µM | K562 > 100 µM | EKVX > 100 µM | NCI-H522 > 100 µM | NCI-H226 > 100 µM | RXF 393 > 100 µM | IGROV-1 > 100 µM | LOX IMVI > 100 µM | SF-295 > 100 µM
> 100 µM: HCT-15

O=C(NNc1nc(-c2ccccc2)cs1)C(F)(F)F
inactive: SF-268 29.6 µM | SR 33.4 µM | SW-620 34.4 µM | NCI/ADR-RES 29.9 µM | 786-0 > 100 µM | UACC-257 44.3 µM | Hs-578T 15.9 µM | M14 57.1 µM | K562 25 µM | EKVX 98.9 µM | NCI-H522 35.7 µM | NCI-H226 20.5 µM | MDA-MB-435 34 µM | RXF 393 75 µM | IGROV-1 20.2 µM | LOX IMVI 57.7 µM | SF-295 29.5 µM
57.3 µM: HCT-15

Cc1cc(NS(=O)(=O)c2ccc(/N=N/c3c(Nc4ccccc4)nn(-c4ccc(S(=O)(=O)Nc5ccncn5)cc4)c3C)cc2)no1
inactive: NCI/ADR-RES > 100 µM | TK-10 > 100 µM | 786-0 > 100 µM | UACC-257 > 100 µM | M14 > 100 µM | K562 86.1 µM | EKVX > 100 µM | MDA-N > 100 µM | NCI-H522 > 100 µM | NCI-H226 > 100 µM | MDA-MB-435 > 100 µM | IGROV-1 > 100 µM | LOX IMVI > 100 µM | SF-295 > 100 µM
> 100 µM: HCT-15

CCNC12CCC(C1)C(C)(C)C2=O (stereo not given)
> 100 µM: HCT-15
inactive: SR > 100 µM | SW-620 > 100 µM | NCI/ADR-RES > 100 µM | TK-10 > 100 µM | 786-0 > 100 µM | UACC-257 > 100 µM | M14 > 100 µM | K562 > 100 µM | EKVX > 100 µM | MDA-N > 100 µM | NCI-H226 > 100 µM | MDA-MB-435 > 100 µM | RXF 393 > 100 µM | IGROV-1 > 100 µM | LOX IMVI > 100 µM | SF-295 > 100 µM

CCc1cc2c(cc1O)CC[C@@H]1[C@@H]2CC[C@]2(C)[C@@H](O)CC[C@@H]12
4.83 µM: HCT-15
inactive: SF-268 6.41 µM | SR 3.08 µM | SW-620 4.16 µM | NCI/ADR-RES 3.66 µM | TK-10 21.9 µM | 786-0 5.21 µM | UACC-257 8.02 µM | M14 6.49 µM | K562 3.88 µM | EKVX 9.71 µM | MDA-N 2.07 µM | NCI-H522 8.81 µM | NCI-H226 12.2 µM | MDA-MB-435 1.73 µM | RXF 393 3.76 µM | IGROV-1 11.2 µM | LOX IMVI 9.75 µM | SF-295 3.91 µM

COc1ccc(-n2cnn3c(=O)c4cn[nH]c4nc23)cc1
inactive: SF-268 > 10 µM | SR > 10 µM | TK-10 > 10 µM | 786-0 > 10 µM | UACC-257 > 10 µM | Hs-578T > 10 µM | M14 > 10 µM | K562 > 10 µM | EKVX > 10 µM | NCI-H522 > 10 µM | NCI-H226 > 10 µM | MDA-MB-435 > 10 µM | LOX IMVI > 10 µM | SF-295 > 10 µM

COc1ccc(COC2CC(OC)OC(C)C2OC(=O)c2ccccc2)cc1 (stereo not given)
17.8 µM: HCT-15
inactive: SF-268 39.8 µM | SR 19 µM | SW-620 46.1 µM | TK-10 63.7 µM | 786-0 74.1 µM | UACC-257 40.1 µM | M14 34.6 µM | K562 27.2 µM | EKVX 70.1 µM | NCI-H522 30.6 µM | NCI-H226 21.7 µM | RXF 393 19.1 µM | IGROV-1 90.4 µM | LOX IMVI 22.6 µM | SF-295 38.5 µM

O=c1c2ccccc2n2c(-c3ccc(O)cc3)nnc2n1-c1ccccc1
inactive: SF-268 21.8 µM | SR 21.3 µM | SW-620 13.5 µM | NCI/ADR-RES 21.5 µM | TK-10 26.5 µM | 786-0 17.9 µM | UACC-257 21.5 µM | M14 18.2 µM | K562 13.4 µM | EKVX 17 µM | MDA-N 15.7 µM | NCI-H522 18.2 µM | NCI-H226 27 µM | MDA-MB-435 18.5 µM | RXF 393 20.5 µM | IGROV-1 18.1 µM | LOX IMVI 29.4 µM | SF-295 15.6 µM
23.1 µM: HCT-15

Cn1cc(C(=O)c2ccccc2)cc(C(=O)c2ccccc2)c1=O
> 100 µM: HCT-15
inactive: SF-268 > 100 µM | SR > 100 µM | SW-620 > 100 µM | TK-10 > 100 µM | 786-0 > 100 µM | UACC-257 > 100 µM | M14 > 100 µM | K562 > 100 µM | EKVX > 100 µM | NCI-H522 > 100 µM | NCI-H226 > 100 µM | RXF 393 > 100 µM | IGROV-1 > 100 µM | LOX IMVI > 100 µM | SF-295 > 100 µM
